Assays:
Format in all cases: biochemical
[1] = target: T1, human Yes1 enzyme (Homo sapiens, UniProt P07947); assay: Yes1 enzyme inhibitory activity (time-resolved fluorometry, biotinylated peptide phosphorylation); conditions: biotinylated peptide phosphorylation, read-out: YES_IC50
T1 construct: made in house
How it was run: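 Inhibition was expressed against a compound-free control to give IC50, using TR-FRET read-out (Eu-cryptate anti-pTyr antibody, streptavidin-XL665).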

[2] = target: T2, human Src enzyme (Homo sapiens, UniProt P12931); assay: Src enzyme inhibitory activity (time-resolved fluorometry, biotinylated peptide phosphorylation); conditions: biotinylated peptide phosphorylation, read-out: SRC_IC50
T2 construct: purchased Carna Biosciences, Inc. 08-173
T2 sequence (P12931 whole entry): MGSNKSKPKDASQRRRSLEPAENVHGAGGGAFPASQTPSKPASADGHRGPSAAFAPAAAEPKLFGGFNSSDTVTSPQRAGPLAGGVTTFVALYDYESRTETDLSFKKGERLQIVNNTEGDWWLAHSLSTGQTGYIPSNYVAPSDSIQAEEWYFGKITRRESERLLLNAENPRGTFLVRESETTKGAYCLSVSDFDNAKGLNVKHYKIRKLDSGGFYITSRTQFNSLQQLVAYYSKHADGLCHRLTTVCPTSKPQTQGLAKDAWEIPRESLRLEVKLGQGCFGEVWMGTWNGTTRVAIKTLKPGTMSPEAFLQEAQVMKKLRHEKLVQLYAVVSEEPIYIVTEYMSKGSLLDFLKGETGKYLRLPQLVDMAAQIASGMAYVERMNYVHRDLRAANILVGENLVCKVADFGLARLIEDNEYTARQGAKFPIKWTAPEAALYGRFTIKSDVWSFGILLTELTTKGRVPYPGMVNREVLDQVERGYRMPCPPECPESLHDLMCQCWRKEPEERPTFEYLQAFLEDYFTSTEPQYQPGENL
How it was run: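 Compounds were tested for blocking tyrosine phosphorylation of a biotinylated peptide substrate by recombinant human Src. Phosphorylated product was quantified by time-resolved fluorometry using europium cryptate and XL665 conjugates, and IC50 was calculated against the compound-free control.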

[3] = target: T3, human Lck enzyme (Homo sapiens, UniProt P06239); assay: Lck enzyme inhibitory activity (time-resolved fluorometry, biotinylated peptide phosphorylation); conditions: biotinylated peptide phosphorylation, read-out: LCK_IC50
T3 construct: purchased Carna Biosciences, Inc. 08-170
T3 sequence (P06239 whole entry): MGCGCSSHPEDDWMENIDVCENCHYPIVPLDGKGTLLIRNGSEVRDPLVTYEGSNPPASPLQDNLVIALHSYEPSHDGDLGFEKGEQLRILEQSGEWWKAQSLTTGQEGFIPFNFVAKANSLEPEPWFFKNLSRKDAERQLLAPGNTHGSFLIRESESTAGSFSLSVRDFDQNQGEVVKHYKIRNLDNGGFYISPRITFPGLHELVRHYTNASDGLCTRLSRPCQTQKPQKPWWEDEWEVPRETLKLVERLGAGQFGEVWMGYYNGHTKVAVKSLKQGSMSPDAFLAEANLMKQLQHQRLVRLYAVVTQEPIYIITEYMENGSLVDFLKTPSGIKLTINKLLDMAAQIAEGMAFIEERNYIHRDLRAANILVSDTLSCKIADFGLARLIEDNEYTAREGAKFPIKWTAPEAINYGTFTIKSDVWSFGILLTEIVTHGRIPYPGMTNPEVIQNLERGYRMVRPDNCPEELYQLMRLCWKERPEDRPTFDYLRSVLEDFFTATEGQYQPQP
How it was run: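 Readout pairs a europium cryptate-labelled anti-phosphotyrosine antibody with XL665-streptavidin, measured by time-resolved fluorescence. IC50 derived from percent inhibition against untreated controls.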

T1 sequence (P07947 whole entry): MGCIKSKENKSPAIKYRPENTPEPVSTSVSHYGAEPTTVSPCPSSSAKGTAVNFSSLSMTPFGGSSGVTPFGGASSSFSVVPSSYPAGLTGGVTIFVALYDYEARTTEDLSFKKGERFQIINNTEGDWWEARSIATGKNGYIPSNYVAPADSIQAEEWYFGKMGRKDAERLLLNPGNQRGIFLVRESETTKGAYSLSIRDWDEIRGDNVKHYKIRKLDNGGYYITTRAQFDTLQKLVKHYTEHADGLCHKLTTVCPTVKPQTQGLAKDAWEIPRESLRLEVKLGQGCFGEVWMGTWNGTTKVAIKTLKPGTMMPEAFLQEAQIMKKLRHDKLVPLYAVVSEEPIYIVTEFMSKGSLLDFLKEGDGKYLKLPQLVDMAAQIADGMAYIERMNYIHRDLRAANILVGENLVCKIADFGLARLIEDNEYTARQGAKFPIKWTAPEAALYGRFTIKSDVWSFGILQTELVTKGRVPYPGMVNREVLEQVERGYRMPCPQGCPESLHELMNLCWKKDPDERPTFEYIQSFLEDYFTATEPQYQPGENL

Row | Compound | IC50 [1] [nM] | IC50 [2] [nM] | IC50 [3] [nM]
1 | Cc1cc(Oc2ccccc2F)ncc1-n1ncc(C(=O)c2cc3cc(F)c(NS(=O)(=O)c4cccc(F)n4)cc3[nH]2)c1N [Example 5-1-519, N-[2-[5-amino-1-[6-(2-fluorophenoxy)-4-methylpyridin-3-yl]pyrazole-4-carbonyl]-5-fluoro-1H-indol-6-yl]-6-fluoropyridine-2-sulfonamide] | 4.6 | 710 | 120
2 | Cc1cnc(F)c(S(=O)(=O)Nc2cc3[nH]c(C(=O)c4cnn(-c5ccc(Oc6ccccc6F)cc5C)c4N)cc3cc2C)c1 [Example 5-1-520, N-[2-[5-amino-1-[4-(2-fluorophenoxy)-2-methylphenyl]pyrazole-4-carbonyl]-5-methyl-1H-indol-5-yl]-2-fluoro-5-methylpyridine-3-sulfonamide] | 2.7 | 270 | 67
3 | Cc1cnc(F)c(S(=O)(=O)Nc2cc3[nH]c(C(=O)c4cnn(-c5cnc(Oc6c(F)cccc6F)cc5C)c4N)cc3cc2C)c1 [Example 5-1-521, N-[2-[5-amino-1-[6-(2,6-difluorophenoxy)-4-methylpyridin-3-yl]pyrazole-4-carbonyl]-5-methyl-1H-indol-6-yl]-2-fluoro-5-methylpyridine-3-sulfonamide] | 5.8 | 470 | 180
4 | Cc1cnc(F)c(S(=O)(=O)Nc2cc3[nH]c(C(=O)c4cnn(-c5ccc(Oc6ccccc6F)cc5C)c4N)cc3cc2F)c1 [Example 5-1-522, N-[2-[5-amino-1-[4-(2-fluorophenoxy)-2-methylphenyl]pyrazole-4-carbonyl]-5-fluoro-1H-indol-6-yl]-2-fluoro-5-methylpyridine-3-sulfonamide] | 1.8 | 250 | 120
5 | Cc1cnc(F)c(S(=O)(=O)Nc2cc3[nH]c(C(=O)c4cnn(-c5cnc(Oc6c(F)cccc6F)cc5C)c4N)cc3cc2F)c1 [Example 5-1-523, N-[2-[5-amino-1-[6-(2,6-difluorophenoxy)-4-methylpyridin-3-yl]pyrazole-4-carbonyl]-5-fluoro-1H-indol-6-yl]-2-fluoro-5-methylpyridine-3-sulfonamide] | 6.3 | 450 | 200
6 | Cc1cnc(F)c(S(=O)(=O)Nc2cc3[nH]c(C(=O)c4cnn(-c5cnc(Oc6ccccc6F)cc5C)c4N)cc3cc2F)c1 [Example 5-1-524, N-[2-[5-amino-1-[6-(2-fluorophenoxy)-4-methylpyridin-3-yl]pyrazole-4-carbonyl]-5-fluoro-1H-indol-6-yl]-2-fluoro-5-methylpyridine-3-sulfonamide] | 5.7 | 580 | 210
7 | Cc1cc2cc(C(=O)c3cnn(-c4ccc(Oc5ccccc5F)cc4C)c3N)[nH]c2cc1NS(=O)(=O)c1cccc(Cl)n1 [Example 5-1-525, N-[2-[5-amino-1-[4-(2-fluorophenoxy)-2-methylphenyl]pyrazole-4-carbonyl]-5-methyl-1H-indol-6-yl]-6-chloropyridine-2-sulfonamide] | 3.1 | 400 | 72
8 | Cc1cc2cc(C(=O)c3cnn(-c4cnc(Oc5c(F)cccc5F)cc4C)c3N)[nH]c2cc1NS(=O)(=O)c1cccc(Cl)n1 [Example 5-1-526, N-[2-[5-amino-1-[6-(2,6-difluorophenoxy)-4-methylpyridin-3-yl]pyrazole-4-carbonyl]-5-methyl-1H-indol-6-yl]-6-chloropyridine-2-sulfonamide] | 8 | 620 | 250
9 | Cc1cc(Oc2ccccc2F)ccc1-n1ncc(C(=O)c2cc3cc(F)c(NS(=O)(=O)c4cccc(Cl)n4)cc3[nH]2)c1N [Example 5-1-527, N-[2-[5-amino-1-[4-(2-fluorophenoxy)-2-methylphenyl]pyrazole-4-carbonyl]-5-fluoro-1H-indol-6-yl]-6-chloropyridine-2-sulfonamide] | 3.2 | 500 | 110
10 | Cc1cc(Oc2c(F)cccc2F)ncc1-n1ncc(C(=O)c2cc3cc(F)c(NS(=O)(=O)c4cccc(Cl)n4)cc3[nH]2)c1N [Example 5-1-528, N-[2-[5-amino-1-[6-(2,6-difluorophenoxy)-4-methylpyridin-3-yl]pyrazole-4-carbonyl]-5-fluoro-1H-indol-6-yl]-6-chloropyridine-2-sulfonamide] | 8.8 | 750 | 230
11 | Cc1cc(Oc2ccccc2F)ncc1-n1ncc(C(=O)c2cc3cc(F)c(NS(=O)(=O)c4cccc(Cl)n4)cc3[nH]2)c1N [Example 5-1-529, N-[2-[5-amino-1-[6-(2-fluorophenoxy)-4-methylpyridin-3-yl]pyrazole-4-carbonyl]-5-fluoro-1H-indol-6-yl]-6-chloropyridine-2-sulfonamide] | 8.6 | 840 | 260
12 | Cc1cccc(S(=O)(=O)Nc2cc3[nH]c(C(=O)c4cnn(-c5ccc(Oc6ccccc6F)cc5C)c4N)cc3cc2C)n1 [Example 5-1-530, N-[2-[5-amino-1-[4-(2-fluorophenoxy)-2-methylphenyl]pyrazole-4-carbonyl]-5-methyl-1H-indol-6-yl]-6-melhylpyridine-2-sulfonamide] | 2.6 | 200 | 34
13 | Cc1cccc(S(=O)(=O)Nc2cc3[nH]c(C(=O)c4cnn(-c5cnc(Oc6c(F)cccc6F)cc5C)c4N)cc3cc2C)n1 [Example 5-1-531, N-[2-[5-amino-1-[6-(2,6-difluorophenoxy)-4-melhylpyridin-3-yl]pyrazole-4-carbonyl]-5-methyl-1H-indol-6-yl]-6-methylpyridine-2-sulfonamide] | 4.9 | 480 | 110
14 | Cc1cccc(S(=O)(=O)Nc2cc3[nH]c(C(=O)c4cnn(-c5ccc(Oc6ccccc6F)cc5C)c4N)cc3cc2F)n1 [Example 5-1-532, N-[2-[5-amino-1-[4-(2-fluorophenoxy)-2-methylphenyl]pyrazole-4-carbonyl]-5-fluoro-1H-indol-6-yl]-6-methylpyridine-2-sulfonamide] | 1.6 | 290 | 38
15 | Cc1cccc(S(=O)(=O)Nc2cc3[nH]c(C(=O)c4cnn(-c5cnc(Oc6c(F)cccc6F)cc5C)c4N)cc3cc2F)n1 [Example 5-1-533, N-[2-[5-amino-1-[6-(2,6-difluorophenoxy)-4-methylpyridin-3-yl]pyrazole-4-carbonyl]-5-fluoro-1H-indol-6-yl]-6-methylpyridine-2-sulfonamide] | 4.7 | 510 | 120
16 | Cc1cccc(S(=O)(=O)Nc2cc3[nH]c(C(=O)c4cnn(-c5cnc(Oc6ccccc6F)cc5C)c4N)cc3cc2F)n1 [Example 5-1-534, N-[2-[5-amino-1-[6-(2-fluorophenoxy)-4-methylpyridin-3-yl]pyrazole-4-carbonyl]-5-fluoro-1H-indol-6-yl]-6-methylpyridine-2-sulfonamide] | 5.1 | 640 | 170
17 | Cc1cc2cc(C(=O)c3cnn(-c4ccc(Oc5ccccc5F)cc4C)c3N)[nH]c2cc1NS(=O)(=O)c1cccc(C#N)n1 [Example 5-1-535, N-[2-[5-amino-1-[4-(2-fluorophenoxy)-2-methylphenyl]pyrazole-4-carbonyl]-5-methyl-1H-indol-6-yl]-6-cyanopyridine-2-sulfonamide] | 4.1 | 390 | 78

Source: US10479780B2, “Aminopyrazole derivatives” (Chugai Seiyaku Kabushiki Kaisha, priority 2015, dated 2019)
